Results as given in paper PMC5028030, “Costimulatory Effects of an Immunodominant Parasite Antigen Paradoxically Prevent Induction of Optimal CD8 T Cell Protective Immunity” (PLoS Pathogens, 2016).
Entries after “also recorded” stand apart in the source; their conditions may differ. Peptide text beside a SMILES is read from it.

Tests used:
WT TS = WT TS (Trypanosoma cruzi, UniProt P23253); experiment: Inhibition of TS enzymatic activity (MuNANA hydrolysis); format: biochemical
Description: (§1) Fig 6 TS enzymatic activity is associated with costimulatory effects. In panel A, enzymatic activities of WT and TSKd1 mutant proteins were determined in lysates and supernatants of 293T cells transfected with WT TS and TSKd1 null DNA using fluorometric TS enzymatic activity assays. […] CD8^+ T cells from naïve 4–5 week old BALB/c mice were purified by positive magnetic bead selection and incubated with suboptimal doses of PMA (12.5ng/ml) ± WT or TSKd1 null rTS. After 3 days, proliferation was measured by ^3H-Thymidine incorporation. Shown are incorporated ^3H-Thymidine counts per minute (CPM) above suboptimal PMA treatment alone. […]
Trans-sialidase enzymatic activity was assayed as described previously. […] The acid elutions were incubated at 95°C for 45 minutes, the reactions neutralized with glycine/NaOH (pH 10) and released 4-MU measured by fluorescence emission at 450nm and compared to a standard curve. […] The reaction was continuously monitored in a SpectraMax i3 Multi-Mode Detection Platform (Molecular Devices) after pre-incubation of the enzyme with the peptide for 10 min at room temperature. The residual activity at each concentration of TSKd1 was obtained by dividing the slope calculated at each concentration of TSKd1 (Vi) by the initial velocity determined in the absence of peptide (V0). […]

naïve CD8^+ T cells = experiment: CD8^+ T cell costimulation assay; format: cell-based, BALB/c mouse; details: inhibitor added to TS/PMA activated CD8^+ T cell cultures
Description: as §1, with “alone. Similar TS costimulation assays using naïve CD8^+ T cells were conducted with CD45 inhibitor PTP or Src-family kinase inhibitor PP2 added (C). In panel D, increasing concentrations of TSKd1 peptide were added to constant amounts of WT TS in TS enzyme assays.” for “alone.”
CD8^+ T cells purified by positive Miltenyi magnetic bead selection from naïve 4–5 week old BALB/c mice were added to 96-well flat bottom plates (2x10^5 cells/well) and stimulated with suboptimal doses of PMA (12.5 ng/ml) with or without recombinant WT vs TSKd1 null TS protein (25–100 μg/ml) similar to TS costimulatory assays conducted previously. […] Ultima Gold F scintillation fluid was added and filtermats counted using a Perkin Elmer TriLux MicroBeta 1450 instrument. […]

CD4^+ T cells = system: CD4^+ T cells; design: method as in manuscript in preparation; details: after TS vaccination; I-A^d-restricted; ref manuscript in preparation; cited from earlier work

Sequence of WT TS (P23253 whole entry): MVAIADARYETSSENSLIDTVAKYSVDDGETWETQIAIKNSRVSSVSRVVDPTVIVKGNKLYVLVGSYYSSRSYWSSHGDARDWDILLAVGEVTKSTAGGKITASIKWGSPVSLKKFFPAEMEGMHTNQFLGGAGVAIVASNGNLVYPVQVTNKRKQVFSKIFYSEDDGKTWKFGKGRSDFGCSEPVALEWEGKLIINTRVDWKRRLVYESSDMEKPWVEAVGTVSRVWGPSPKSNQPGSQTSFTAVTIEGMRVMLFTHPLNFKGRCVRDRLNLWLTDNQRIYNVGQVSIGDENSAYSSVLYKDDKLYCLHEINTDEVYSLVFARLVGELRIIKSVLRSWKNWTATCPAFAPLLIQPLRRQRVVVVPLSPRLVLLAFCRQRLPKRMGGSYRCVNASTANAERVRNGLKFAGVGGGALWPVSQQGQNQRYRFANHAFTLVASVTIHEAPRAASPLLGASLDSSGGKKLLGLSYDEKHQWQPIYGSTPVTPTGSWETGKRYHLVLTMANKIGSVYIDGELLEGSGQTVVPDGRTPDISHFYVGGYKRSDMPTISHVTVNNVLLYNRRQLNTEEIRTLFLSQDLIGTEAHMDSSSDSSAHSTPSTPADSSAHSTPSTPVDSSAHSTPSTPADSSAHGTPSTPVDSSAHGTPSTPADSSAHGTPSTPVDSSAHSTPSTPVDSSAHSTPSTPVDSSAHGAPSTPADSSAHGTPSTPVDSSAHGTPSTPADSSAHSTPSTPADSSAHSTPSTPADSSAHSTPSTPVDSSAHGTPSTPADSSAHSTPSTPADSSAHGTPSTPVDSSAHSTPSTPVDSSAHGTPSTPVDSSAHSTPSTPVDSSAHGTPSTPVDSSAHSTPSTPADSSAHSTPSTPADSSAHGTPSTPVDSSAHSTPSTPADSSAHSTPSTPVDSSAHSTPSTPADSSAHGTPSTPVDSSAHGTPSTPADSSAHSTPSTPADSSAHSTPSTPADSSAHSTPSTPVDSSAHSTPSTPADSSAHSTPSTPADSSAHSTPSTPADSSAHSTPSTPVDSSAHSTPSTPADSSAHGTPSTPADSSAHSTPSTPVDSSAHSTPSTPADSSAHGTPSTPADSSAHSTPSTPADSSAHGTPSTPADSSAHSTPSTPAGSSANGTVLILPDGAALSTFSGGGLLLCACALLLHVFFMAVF

## CC[C@H](C)[C@H](N)C(=O)N[C@@H](Cc1ccc(O)cc1)C(=O)N[C@@H](CC(N)=O)C(=O)N[C@H](C(=O)NCC(=O)N[C@@H](CCC(N)=O)C(=O)N[C@H](C(=O)N[C@@H](CO)C(=O)N[C@H](C(=O)O)[C@@H](C)CC)C(C)C)C(C)C [TSKd1, IYNVGQVSI] (H-IYNVGQVSI-OH)
WT TS
  IC50: 20 ± 3 µM

## CC(C)(C)C(=O)Nc1ccc2c(c1)C(=O)C(=O)c1ccccc1-2 [PTP, N-[(9-10-dioxo-9,10-dihydro-phenanthren-2-yl)-2,2-dimethyl-propionamide]]
naïve CD8^+ T cells
  inhibition of TS costimulatory activity: blocked; also recorded: prevent co-stimulation of naïve CD8^+ T cells

## KVTERVVHSFRLPALVNV [p7]
CD4^+ T cells
  CD4^+ T cell response to peptide: most potent CD4^+ T cell responses of any peptide tested
